The results in this text go back to US20230382911A1 (Hoffmann-La Roche Inc., priority 2021, published 2023).

For this test, the target named is Recombinant human Mat2a (Homo sapiens (Human), UniProt P31153). In words: Determination of Mat2A activity: 384 well format absorbance-based Mat2A inhibition assay. The format is biochemical. The note with it: 12.5 nM Mat2A, 100 μM ATP and Methionine, 2% DMSO, 120 minutes at RT, Biomol Green, absorbance at 635 nm. The procedure: Determination of Mat2A Activity
Measurement of Mat2A inhibition is performed in 384 well format absorbance-based assay.
Recombinant human Mat2a (12.5 nM) and serial diluted compounds in DMSO (range of concentrations from 10 μM to […]) or controls (DMSO) are incubated for 15 minutes at room temperature (RT) in assay buffer containing 50 mM HEPES pH 7.5, 50 mM KCl, 50 mM MgCl2, 0.01% Tween 20 and 10 mM DTT. The reaction is initiated by the addition of the combined substrates ATP and Methionine, each at a final concentration of 100 μM. Final assay condition are 12.5 nM Mat2A, 100 μM ATP and Methionine Substrates and 2% DMSO. After 120 minutes of incubation at RT, the reaction is stopped by the addition of Biomol Green. The absorbance signal is measured at λ=635 nm with a multiplate reader (BMG Pherastar reader or equivalent) after 30 min of equilibration at RT.

Recombinant human Mat2a, sequence (P31153 whole entry): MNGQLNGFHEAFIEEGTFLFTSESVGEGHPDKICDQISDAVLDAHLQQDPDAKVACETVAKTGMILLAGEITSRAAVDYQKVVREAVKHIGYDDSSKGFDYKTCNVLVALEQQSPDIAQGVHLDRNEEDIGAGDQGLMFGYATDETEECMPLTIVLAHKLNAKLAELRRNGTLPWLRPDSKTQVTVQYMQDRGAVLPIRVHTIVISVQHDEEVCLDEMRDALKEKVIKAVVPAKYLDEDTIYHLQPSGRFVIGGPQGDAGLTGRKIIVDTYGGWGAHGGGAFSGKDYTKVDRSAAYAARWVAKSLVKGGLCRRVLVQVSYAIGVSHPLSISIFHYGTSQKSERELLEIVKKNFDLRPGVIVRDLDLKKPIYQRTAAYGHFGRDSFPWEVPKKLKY

For orientation: IC50 means the concentration at which inhibition is half-maximal. On to `Cc1ccccc1C(=O)n1nc(N)c2ccc(C3CCC3)nc21` [Example 31, (3-amino-6-cyclobutyl-1H-pyrazolo[3,4-b]pyridin-1-yl)(o-tolyl)methanone], for which the IC50 was found to be 200 nM.
For `Nc1nn(C(=O)c2ccccc2Cl)c2nc(N3CCCC3)c(F)cc12` [Example 12, (3-amino-5-fluoro-6-(pyrrolidin-1-yl)-1H-pyrazolo[3,4-b]pyridin-1-yl)(2-chlorophenyl)methanone], the IC50 turned out to be 140 nM.
With `Nc1nn(C(=O)c2cccnc2C(F)(F)F)c2nc(C3CC3)ccc12` [Example 77, (3-amino-6-cyclopropyl-1H-pyrazolo[3,4-b]pyridin-1-yl)(2-(trifluoromethyl)pyridin-3-yl)methanone] the figure was 31 nM; with `Nc1nn(C(=O)c2cccc3c2OCO3)c2nc(C3CC3)ccc12` [Example 19, (3-amino-6-cyclopropylpyrazolo[3,4-b]pyridin-1-yl)-(1,3-benzodioxol-4-yl)methanone], 410 nM; with `COc1ccccc1C(=O)n1nc(N)c2ccc([C@@H]3C[C@H]3C(F)(F)F)nc21` (racemic) [Example 42, [3-amino-6-[(1RS,2RS)-2-(trifluoromethyl)cyclopropyl]pyrazolo[3,4-b]pyridin-1-yl]-(2-methoxyphenyl)methanone], 200 nM.
As to `Nc1nn(C(=O)c2ccccc2Cl)c2nc(N3CCCC3)ccc12` [Example 4, (3-amino-6-(pyrrolidin-1-yl)-1H-pyrazolo[3,4-b]pyridin-1-yl)(2-chlorophenyl)methanone], the IC50 turned out to be 140 nM.
Consider `COc1ccccc1C(=O)n1nc(N)c2ccc(C3=CCOC3)nc21` [Example 35, [3-amino-6-(2,5-dihydrofuran-3-yl)pyrazolo[3,4-b]pyridin-1-yl]-(2-methoxyphenyl)methanone], for which the IC50 is 17 nM.
On to `Cc1ncccc1C(=O)n1nc(N)c2ccc(C3CC3)nc21` [Example 68, (3-amino-6-cyclopropyl-1H-pyrazolo[3,4-b]pyridin-1-yl)(2-methylpyridin-methylpyridine-3-yl)methanone], for which the IC50 was determined as 19 nM.
With `Nc1nn(C(=O)c2ccccc2OC(F)F)c2nc(C3CC3)ccc12` [Example 61, (3-amino-6-cyclopropyl-1H-pyrazolo[3,4-b]pyridin-1-yl)(2-(difluoromethoxy)phenyl)methanone], the IC50 worked out at 130 nM.
With `C[C@H]1OCC[C@H]1C(=O)n1nc(N)c2ccc(C3CC3)nc21` (racemic) [Example 65, (3-amino-6-cyclopropyl-1H-pyrazolo[3,4-b]pyridin-1-yl)((2SR,3RS)-2-methyltetrahydrofuran-3-methyloxolane-2-yl)methanone] the figure was 36 nM; with `Cc1ccccc1C(=O)n1nc(N)c2cnc(N3CCCC3)nc21` [Example 17, (3-amino-6-(pyrrolidin-1-yl)-1H-pyrazolo[3,4-d]pyrimidin-1-yl)(o-tolyl)methanone], 280 nM.
Consider `Cc1c(C#N)cccc1C(=O)n1nc(N)c2ccc(C3CC3)nc21` [Example 66, 3-(3-amino-6-cyclopropyl-1H-pyrazolo[3,4-b]pyridine-1-carbonyl)-2-methylbenzonitrile], for which the IC50 is 54 nM.
With `Nc1nn(C(=O)c2cccnc2Cl)c2nc(C3CC3)ccc12` [Example 76, (3-amino-6-cyclopropyl-1H-pyrazolo[3,4-b]pyridin-1-yl)(2-chloropyridin-3-yl)methanone], the IC50 is 17 nM.
Turning to `COc1ccccc1C(=O)n1nc(N)c2ccc(CC(C)C)nc21` [Example 2, (3-amino-6-isobutyl-1H-pyrazolo[3,4-b]pyridin-1-yl)(2-methoxyphenyl)methanone], the IC50 stood at 110 nM.
Next, `Cc1c(F)cccc1C(=O)n1nc(N)c2ccc(C3CC3)nc21` [Example 54, (3-amino-6-cyclopropyl-1H-pyrazolo[3,4-b]pyridin-1-yl)(3-fluoro-2-methylphenyl)methanone]: 210 nM.
With `COc1ccccc1C(=O)n1nc(N)c2cc(F)c(-c3ccccc3)nc21` [Example 10, (3-amino-5-fluoro-6-phenyl-1H-pyrazolo[3,4-b]pyridin-1-yl)(2-methoxyphenyl)methanone] the figure was 280 nM; with `Cc1ncsc1C(=O)n1nc(N)c2ccc(C3CC3)nc21` [Example 63, (3-amino-6-cyclopropyl-1H-pyrazolo[3,4-b]pyridin-1-yl)(4-methylthiazol-5-yl)methanone], 130 nM.
Next, `Cc1nccnc1C(=O)n1nc(N)c2ccc(C3CC3)nc21` [Example 74, (3-amino-6-cyclopropyl-1H-pyrazolo[3,4-b]pyridin-1-yl)(3-methylpyrazin-2-yl)methanone]: 220 nM.
Turning to `COc1ccccc1C(=O)n1nc(N)c2ccc(N3CCC3)nc21` [Example 24, (3-amino-6-(azetidin-1-yl)-1H-pyrazolo[3,4-b]pyridin-1-yl)(2-methoxyphenyl)methanone], the IC50 stood at 300 nM.
Turning to `COc1ccccc1C(=O)n1nc(N)c2ccc(N3C[C@@H]4CC[C@H]3C4)nc21` (racemic) [Example 51, [3-amino-6-[(1RS,4SR)-3-azabicyclo[2.2.1]heptan-3-yl]pyrazolo[3,4-b]pyridin-1-yl]-(2-methoxyphenyl)methanone], the IC50 amounted to 170 nM.
With `Cc1ccccc1C(=O)n1nc(N)c2ccc(C3=CCOC3)nc21` [Example 36, [3-amino-6-(2,5-dihydrofuran-3-yl)pyrazolo[3,4-b]pyridin-1-yl]-(2-methylyphenyl)methanone] the figure was 67 nM; with `COc1ccccc1C(=O)n1nc(N)c2ccc(C(C)(C)C)nc21` [Example 15, (3-amino-6-(tert-butyl)-1H-pyrazolo[3,4-b]pyridin-1-yl)(2-methoxyphenyl)methanone], 99 nM; with `COc1ccccc1C(=O)n1nc(N)c2cnc(N3CCCC3)nc21` [Example 16, (3-amino-6-(pyrrolidin-1-yl)-1H-pyrazolo[3,4-d]pyrimidin-1-yl)(2-methoxyphenyl)methanone], 65 nM.
Turning to `COc1ccccc1C(=O)n1nc(N)c2ccc(C3CCC3)nc21` [Example 32], the IC50 came to 59 nM.
Consider `COc1c(F)cccc1C(=O)n1nc(N)c2ccc(C3CC3(F)F)nc21` (stereo not shown) [Example 45, (3-amino-6-(2,2-difluorocyclopropyl)-1H-pyrazolo[3,4-b]pyridin-1-yl)(3-fluoro-2-methoxyphenyl)methanone], for which the IC50 was 91 nM.
Regarding `Cc1cccc(C(=O)n2nc(N)c3ccc(C4CC4)nc32)c1C` [Example 55, (3-amino-6-cyclopropyl-1H-pyrazolo[3,4-b]pyridin-1-yl)(2,3-dimethylphenyl)methanone], the IC50 stood at 320 nM.
Next, `COc1c(C#N)cccc1C(=O)n1nc(N)c2ccc(C3CC3)nc21` [Example 72, 3-(3-amino-6-cyclopropyl-1H-cyclopropyl-1H-pyrazolo[3,4-b]pyridine-1-carbonyl)-2-methoxybenzonitrile]: 37 nM.
As for `COC1CCCCC1C(=O)n1nc(N)c2ccc(C3CC3)nc21` (stereo not shown) [Example 37, (3-amino-6-cyclopropyl-1H-pyrazolo[3,4-b]pyridin-1-yl)(2-methoxycyclohexyl)methanone], the IC50 was 290 nM.
In the case of `COc1ccccc1C(=O)n1nc(N)c2ccc(C(F)(F)F)nc21` [Example 26], the IC50 was 120 nM.
Turning to `COc1c(C)cccc1C(=O)n1nc(N)c2ccc(C3CC3)nc21` [Example 70, (3-amino-6-cyclopropyl-1H-pyrazolo[3,4-b]pyridin-1-yl)(2-methoxy-3-methylphenyl)methanone], the IC50 worked out at 180 nM.
Take `COc1c(F)cccc1C(=O)n1nc(N)c2ccc(C3=CCOC3)nc21` [Example 47, [3-amino-6-(2,5-dihydrofuran-3-yl)pyrazolo[3,4-b]pyridin-1-yl]-(3-fluoro-2-methoxyphenyl)methanone]: the IC50 was 25 nM.
Turning to `Cc1nnccc1C(=O)n1nc(N)c2ccc(C3CC3)nc21` [Example 78, (3-amino-6-cyclopropyl-1H-pyrazolo[3,4-b]pyridin-1-yl)(3-methylpyridazin-4-yl)methanone], the IC50 worked out at 200 nM.
For the compound `COc1ncccc1C(=O)n1nc(N)c2ccc(C3CC3)nc21` [Example 75, (3-amino-6-cyclopropyl-1H-pyrazolo[3,4-b]pyridin-1-yl)(2-methoxypyridin-3-yl)methanone], the IC50 was 26 nM.
Next, `Nc1nn(C(=O)C2CCCOC2)c2nc(C3CC3)ccc12` (stereo not shown) [Example 73, (3-amino-6-cyclopropyl-1H-cyclopropyl-1H-pyrazolo[3,4-b]pyridin-1-yl)(tetrahydro-2H-pyran-3-yl)methanone]: 180 nM; `Nc1nn(C(=O)C2CCOCC2)c2nc(C3CC3)ccc12` [Example 67, (3-amino-6-cyclopropyl-1H-pyrazolo[3,4-b]pyridin-1-yl)(tetrahydro-2H-pyran-4-yl)methanone]: 49 nM.
For `COc1c(F)cccc1C(=O)n1nc(N)c2cc(F)c(N3CCCC3)nc21` [Example 46, (3-amino-5-fluoro-6-(pyrrolidin-1-yl)-1H-pyrazolo[3,4-b]pyridin-1-yl)(3-fluoro-2-methoxyphenyl)methanone], the IC50 turned out to be 55 nM.
As for `COc1cc(F)ccc1C(=O)n1nc(N)c2ccc(C3CC3)nc21` [Example 58, (3-amino-6-cyclopropyl-1H-pyrazolo[3,4-b]pyridin-1-yl)(4-fluoro-2-methoxyphenyl)methanone], the IC50 was determined as 300 nM.
